# Key:
# A549 cells = assay: Live cell imaging (confocal microscope) with Na2S4 added; format: cell-based
# Procedure: The SSip-1 DA was introduced into A549 cells, and 500 μM of Na2S4 was added outside the cells under a microscope. The A549 cells were incubated for three hours by 10 μM of SSip-1 DA (containing 0.0003% Purulonic and 1% DMSO as a co-solvent). The excitation wavelength was 488 nm, and the emission wavelengths were 500-570 nm and 590-650 nm. […]
# [1] = Reversibility of SSip-1 (in vitro assay in the presence of 5 mM of GSH); settings: 1 μM probe, pH 7.4, 5 mM GSH
# Procedure: Reversibility of SSip-1 (In Vitro Assay in the Presence of 5 mM of GSH)
# The existence of a response to sulfane sulfur was studied in the presence of 5 mM of GSH, which is the GSH concentration in cells (FIG. 4).
# (§1) The excitation wavelength was 470 nm.
# [2] = Selectivity with H2S (addition of NaHS); settings: 0.1 μm of SSip-1, pH 7.4, 300 μM GSH, 50 μM NaHS, excitation 470 nm
# Description: as §1
# [3] = Absorption and fluorescence spectra of the probe after addition of Na2S4 in buffer; settings: 1 μM probe, 0.1 M sodium phosphate buffer pH 7.4, 300 μM GSH
# Procedure: Na2S4 was added to compound 8 synthesized as described above, and the absorption spectrum (UV-1650PC, Shimadzu) and fluorescence spectrum (F-4500, Hitachi) were measured.
# as §1
# Na2S4 was added to the synthesized compound a1, compound a2, and compound 25, which was obtained by deprotecting compound a4, and the absorption and fluorescence spectra were measured.
# cells = assay: Localization in cells, co-staining with Lysotracker or Mitotracker; format: cell-based
# Procedure: The localization in cells was studied using compound a3. […] The cells were incubated for one hour by 10 μM of compound a3 and 50 nM of Lysotracker Deep red or 200 nM of Mitotracker Deep red in DMEM (containing 0.03% Purulonic and 0.1% DMSO as a co-solvent). Ex/Em=488 nm (laser intensity 20%)/500-540 nm (PMT1000) and 650 nm/670-700 nm (PMT600)
# [4] = A549 cells incubated 3 h with 10 μM SSip-1 DA, 500 μM Na2S4 added, excitation 488 nm
substance,measurement,setting,value
SSip-1,intensity of the fluorescein-derived fluorescence wavelength region (500-570 nm),A549 cells; [4],increased
same,intensity of the rhodamine-derived fluorescence wavelength region (590-650 nm),A549 cells; [4],decreased slightly
same,time for fluorescence to decrease after washout,"A549 cells; A549 live cells, after washout of 250 μM Na2S4",about 20 minutes
same,time for fluorescence to rise after Na2S4 addition,"A549 cells; A549 live cells, repeated addition of 250 μM Na2S4",within one minute
same,fluorescence after addition of Na2S4,"[1]; 50 μM Na2S4, excitation 470 nm",the fluorescence rose after addition of Na2S4
same,reversibility (fluorescence on repeated Na2S4 addition),[1]; Na2S4 added again,showing reversibility
same,rise in fluorescence intensity with H2S donor,[2],virtually no rise in fluorescence intensity
same,change in absorbance on the rhodamine side,[3]; after 50 μM Na2S4,decrease in absorbance on the rhodamine side
same,rise in fluorescence intensity,"[3]; after 50 μM Na2S4, excitation 470 nm",approximately 10 fold
same,merging with Lysotracker and Mitotracker,cells; cells incubated 1 h with 10 μM compound a3 and 50 nM Lysotracker Deep red or 200 nM Mitotracker Deep red in DMEM,did not merge with Lysotracker and Mitotracker
same,localization in cells,cells; in comparison to the localization when only SSip-1 was loaded,localized in the mitochondria
